# Assay results reported in patent US20080200393A1, “Method and Composition For Treating Angiogenesis and For Preventing Cancer Progression and Metastasis Comprising a Prostate Secretory Protein (Psp94) Family Member” (Ambrillia Biopharma Inc., priority 2004, published 2008).
# Where no end group is shown, it is not given here.
# Columns and labels:
# Format in all cases: cell-based
# RhoA = RhoA gene and protein expression in U-87 cells (Western blot, RT-PCR); details: U-87, 300 ug/ml, 48 hrs
# Description: Specific manipulation of the GTPase Rho activity can be used to suppress or enhance the organizational behaviour of endothelial cells as well as it can restrict cancer cells proliferation. In particular, RhoA mediates cell contractility by organizing actin filaments which consequently regulates cell migration. […] Tests were carried out in order to determine whether the PCK3145 derivative affected RhoA gene and protein expression. U-87 cells were either treated with the PCK3145 derivative (300 ug/ml, 48 hrs). Results of this experiment confirm that the PCK3145 derivative induced endogenous RhoA protein expression in U-87 cells as assessed by Western blotting (FIG. 11A, FIG. 11C).
# PDGF receptor (PDGFR) = biological target: T1, PDGF receptor (PDGFR) (Homo sapiens, UniProt P09619); assay: PDGF-induced PDGFR phosphorylation in PASMC
# T1 construct: the PDGF receptor (PDGFR) in PASMC (pulmonary aortic smooth muscle cells); host or cells: PASMC (pulmonary aortic smooth muscle cells)
# T1 sequence (P09619 33-1106): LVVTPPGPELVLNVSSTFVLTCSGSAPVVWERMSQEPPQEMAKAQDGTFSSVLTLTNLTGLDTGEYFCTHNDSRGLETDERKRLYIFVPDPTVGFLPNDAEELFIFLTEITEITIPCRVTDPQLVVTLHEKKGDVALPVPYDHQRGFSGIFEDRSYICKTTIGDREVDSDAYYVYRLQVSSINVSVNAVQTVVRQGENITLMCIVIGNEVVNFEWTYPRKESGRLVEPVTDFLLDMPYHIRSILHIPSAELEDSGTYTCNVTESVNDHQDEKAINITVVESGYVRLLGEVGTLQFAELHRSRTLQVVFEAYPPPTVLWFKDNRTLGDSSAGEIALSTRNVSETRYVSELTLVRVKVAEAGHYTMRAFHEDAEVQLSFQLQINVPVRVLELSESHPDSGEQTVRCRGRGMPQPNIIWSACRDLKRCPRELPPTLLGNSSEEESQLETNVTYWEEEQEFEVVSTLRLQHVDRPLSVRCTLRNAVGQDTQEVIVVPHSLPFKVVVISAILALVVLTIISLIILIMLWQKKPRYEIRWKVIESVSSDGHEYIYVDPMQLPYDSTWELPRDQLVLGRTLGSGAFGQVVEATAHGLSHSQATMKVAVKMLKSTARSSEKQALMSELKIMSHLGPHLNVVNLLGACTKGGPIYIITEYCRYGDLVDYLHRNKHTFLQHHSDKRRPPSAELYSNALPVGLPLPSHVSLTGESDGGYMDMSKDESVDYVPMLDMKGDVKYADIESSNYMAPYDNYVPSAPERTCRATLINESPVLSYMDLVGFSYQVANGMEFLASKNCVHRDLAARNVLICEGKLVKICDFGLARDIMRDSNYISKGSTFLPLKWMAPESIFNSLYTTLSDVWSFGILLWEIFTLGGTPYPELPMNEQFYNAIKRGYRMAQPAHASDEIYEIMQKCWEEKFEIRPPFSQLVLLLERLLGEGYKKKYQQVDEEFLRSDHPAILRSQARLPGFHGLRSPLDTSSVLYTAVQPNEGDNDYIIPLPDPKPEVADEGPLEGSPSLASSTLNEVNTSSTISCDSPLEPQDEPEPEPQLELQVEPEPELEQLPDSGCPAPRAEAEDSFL
# Description: (§1) Cell culture. Human umbilical vein endothelial cells (HUVEC) and pulmonary aortic smooth muscle cells (PASMC) were obtained from Clonetics and maintained in endothelial cell basal medium-2 (EBM-2; Clonetics) and smooth muscle medium-2 (SmGM-2; Clonetics), respectively. Cells were cultured at 37° C. under a humidified atmosphere containing 5% CO2. For experimental purposes, cells were plated in 8 100-mm plastic dishes at 5,000 cells/cm^2 and were grown to confluence before overnight serum starvation. Cells were treated with vehicle or with a PCK3145 derivative diluted in 0.1 N NaOH, and stimulated with 50-100 ng/ml VEGF or PDGF, with 10 ng/ml of bFGF (basic fibroblast growth factor) or with 1 μM S1P (sphingosine-1-phosphate).
# (§2) Immunoprecipitation and immunoblotting procedures. After treatment, cells were washed once with phosphate-buffered saline (PBS) containing 1 mM sodium orthovanadate and were incubated in the same medium for 1 h at 4° C. […] The cells were then scraped from the culture dishes and the resulting lysates were clarified by centrifugation at 10,000 g for 10 min; Protein concentrations were determined using the micro bicinchoninic acid method (Pierce). […] The immunoreactive bands were quantified by scanning densitometry (Molecular Dynamics). […]
# ERK = assay: PDGF-induced ERK phosphorylation in PASMC
# Description: as §1, §2
sequence,measurement,setting,value
"EWQTDNCETCTCYET (cysteine pairing not given here) [PCK3145 derivative, PCK3145 derivative with acetylaminomethyl groups on the three cysteines]",RhoA gene expression (RT-PCR),RhoA,paralleled that of its gene expression
same,endogenous RhoA protein expression (Western blotting),RhoA,induced
same,PDGFR phosphorylation induced by PDGF,PDGF receptor (PDGFR),inhibition
same,PDGF-induced ERK phosphorylation,ERK,inhibition
